Test results published in US11584744B2 (UNIVERSITY OF WASHINGTON, priority 2017, dated 2023).
≈ marks a conversion by molar mass, not a printed value. Like-named read-outs stand apart in the source and are kept apart here.

What was measured:
[1] = test system: E. faecium VRE (ATCC 51559); assay: MIC susceptibility testing; format: cell-based, Enterococcus faecium; conditions: Enterococcus faecium, E. faecium ATCC 51559; read-out: (I) E. faecium (ATCC 51559) MIC
Summary of the method: (§1)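 CLSI broth microdilution with two-fold compound dilutions, in triplicate; cells added in medium at 1×10^6 CFUs/mL, DMSO ≤0.5%. Media: MHB for S. aureus, CA-MHB for E. coli and E. faecium, CA-MHB plus 3% laked horse blood for S. pyogenes (5% CO2).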

MetRS (C. parvum) = MetRS (C. parvum) (Cryptosporidium parvum, UniProt Q5CVN0); assay: MetRS (C. parvum) enzyme inhibition; format: biochemical; conditions: read-out: (C) MetRS (C. parvum) IC50
Chain of MetRS (C. parvum) (Q5CVN0 entry or part of it): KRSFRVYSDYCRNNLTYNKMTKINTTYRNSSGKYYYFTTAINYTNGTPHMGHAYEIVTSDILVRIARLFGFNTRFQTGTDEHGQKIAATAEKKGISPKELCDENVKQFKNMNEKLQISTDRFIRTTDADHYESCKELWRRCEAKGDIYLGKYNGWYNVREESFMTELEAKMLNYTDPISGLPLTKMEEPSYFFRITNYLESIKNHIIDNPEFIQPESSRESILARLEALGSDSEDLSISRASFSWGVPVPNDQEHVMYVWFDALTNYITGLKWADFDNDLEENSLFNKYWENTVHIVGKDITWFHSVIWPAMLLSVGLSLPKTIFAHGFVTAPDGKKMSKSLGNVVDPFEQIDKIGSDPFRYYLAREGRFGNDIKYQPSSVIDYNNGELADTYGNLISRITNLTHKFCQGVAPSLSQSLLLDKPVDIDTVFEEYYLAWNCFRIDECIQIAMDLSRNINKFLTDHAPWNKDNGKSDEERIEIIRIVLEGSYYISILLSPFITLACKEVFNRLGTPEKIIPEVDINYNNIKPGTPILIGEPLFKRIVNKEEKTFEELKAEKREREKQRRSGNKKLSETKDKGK

MetRS (T. brucei) = target: T1, MetRS (T. brucei) (Trypanosoma brucei brucei, UniProt Q38C91); assay: MetRS (T. brucei) enzyme inhibition; format: biochemical
T1 sequence (Q38C91 1-773): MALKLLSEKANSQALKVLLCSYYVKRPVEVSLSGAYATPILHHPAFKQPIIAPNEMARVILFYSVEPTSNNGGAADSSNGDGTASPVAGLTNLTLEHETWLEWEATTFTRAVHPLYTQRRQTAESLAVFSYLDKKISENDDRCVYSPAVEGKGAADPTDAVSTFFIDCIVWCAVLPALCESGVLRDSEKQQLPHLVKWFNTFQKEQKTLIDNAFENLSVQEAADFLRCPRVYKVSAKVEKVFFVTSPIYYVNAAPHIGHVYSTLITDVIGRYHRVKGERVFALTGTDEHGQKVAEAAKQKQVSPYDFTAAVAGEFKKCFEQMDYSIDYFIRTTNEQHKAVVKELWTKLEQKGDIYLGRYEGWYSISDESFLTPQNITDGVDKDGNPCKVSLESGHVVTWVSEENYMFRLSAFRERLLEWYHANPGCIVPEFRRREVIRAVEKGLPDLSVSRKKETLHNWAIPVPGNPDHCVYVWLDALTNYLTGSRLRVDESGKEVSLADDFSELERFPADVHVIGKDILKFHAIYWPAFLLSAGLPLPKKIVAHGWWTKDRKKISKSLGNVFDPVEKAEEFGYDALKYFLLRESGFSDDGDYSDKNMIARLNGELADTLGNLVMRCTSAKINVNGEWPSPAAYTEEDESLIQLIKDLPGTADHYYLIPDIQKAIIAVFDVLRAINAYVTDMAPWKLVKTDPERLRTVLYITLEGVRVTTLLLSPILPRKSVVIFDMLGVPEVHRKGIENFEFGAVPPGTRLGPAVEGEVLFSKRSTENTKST

T. cruzi = T. cruzi growth inhibition; format: cell-based, Trypanosoma cruzi; conditions: Trypanosoma cruzi; read-out: (E) T. cruzi EC50
[2] = test system: S. aureus MRSA (ATCC 33591); assay: MIC susceptibility testing; format: cell-based, Staphylococcus aureus; conditions: Staphylococcus aureus, MRSA ATCC33591; read-out: (G) MRSA (ATCC33591) MIC
Summary of the method: as §1

[3] = test system: S. aureus MSSA (ATCC 29213); assay: MIC susceptibility testing; format: cell-based, Staphylococcus aureus; conditions: S. aureus ATCC 29213; for MIC: Staphylococcus aureus, read-out: (F) S. aureus (ATCC 29213) MIC
T. brucei = T. brucei growth inhibition; format: cell-based, Trypanosoma brucei; conditions: read-out: (D) T. brucei EC50
S. pyogenes (ATCC 19615) = assay: MIC susceptibility testing; format: cell-based; conditions: Streptococcus pyogenes, ATCC19615, S. pyogenes ATCC 19615; read-out: (H) S. pyogenes (ATCC 19615) MIC
Source text: Media and culture conditions. Mueller Hinton broth (MHB), cation adjusted Mueller Hinton broth (CA-MHB), and Brain Heart Infusion broth (BHI) were purchased from Becton Dickinson (Franklin Lakes, N.J.). Tryptic soy agar (TSA) plates, TSA with 5% sheep blood plates, and CA-MHB with 3% laked horse blood were purchased from Remel (San Diego, Calif.). MHB was used to assay all Staphylococcus aureus strains. CA-MHB was used for Staphylococcus epidermidis, Enterococcus faecalis, Enterococcus faecium, Escherichia coli, and Pseudomonas aeruginosa. CA-MHB supplemented with 3% laked horse blood was used for Streptococcus pneumoniae and Streptococcus pyogenes. Staphylococcus, Enterococcus, Escherichia, and Pseudomonas strains were cultured at 37° C. with ambient air. Streptococcus strains were cultured in 37° C. with 5% CO2. Separate conditions for radiolabeled precursor uptake assays are described below.
Susceptibility testing: Minimum inhibitory concentration (MIC) determinations were performed in triplicate in 96-well round bottom microtiter plates (Corning, Corning N.Y.) as described by the Clinical and Laboratory Standards Institute (CLSI). Serial two-fold dilutions of compounds were added to plates in 50 μL volumes. An additional 50 μL of media containing bacterial cells (1×10^6 CFUs/mL) was then added to each well. Maximum DMSO concentrations were 0.5%. Plates were incubated at 37° C. for at least 18 h before reading the susceptibility result by optical absorbance (OD600) using a BioTek ELx800. The lowest concentration causing ≥90% growth inhibition compared to the untreated control was recorded as the MIC (and also corresponded to the visual MIC). MICs were measured at least twice and the higher value (if different) was recorded herein.

[4] = target: recombinant S. aureus MetRS enzyme (Staphylococcus aureus, UniProt A0A0H2XID2); assay: Inhibition of SaMetRS, ATP depletion assay; format: biochemical; conditions: read-out: (B) MetRS (S. aureus) IC50
Chain of recombinant S. aureus MetRS enzyme (A0A0H2XID2 2-657): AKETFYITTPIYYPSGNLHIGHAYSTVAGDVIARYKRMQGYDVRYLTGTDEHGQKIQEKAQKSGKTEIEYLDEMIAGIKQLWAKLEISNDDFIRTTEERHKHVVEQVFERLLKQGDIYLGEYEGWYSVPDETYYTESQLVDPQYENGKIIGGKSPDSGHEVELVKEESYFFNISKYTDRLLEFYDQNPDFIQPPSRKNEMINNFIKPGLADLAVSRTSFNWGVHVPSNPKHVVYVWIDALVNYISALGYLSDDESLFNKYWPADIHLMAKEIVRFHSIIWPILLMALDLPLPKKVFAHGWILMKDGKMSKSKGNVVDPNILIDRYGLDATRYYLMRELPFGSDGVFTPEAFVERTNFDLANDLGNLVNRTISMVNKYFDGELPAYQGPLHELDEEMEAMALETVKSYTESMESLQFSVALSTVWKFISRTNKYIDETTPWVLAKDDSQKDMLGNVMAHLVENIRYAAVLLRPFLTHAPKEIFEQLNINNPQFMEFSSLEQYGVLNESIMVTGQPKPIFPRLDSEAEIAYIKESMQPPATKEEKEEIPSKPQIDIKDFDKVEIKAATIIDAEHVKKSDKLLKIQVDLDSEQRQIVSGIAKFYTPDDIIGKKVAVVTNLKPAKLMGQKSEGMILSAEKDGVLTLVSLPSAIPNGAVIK
Method: Production of recombinant S. aureus MetRSs. The SaMetRS gene (UniProtKB—A0A0H2XID2) was PCR amplified (Sense 5′-[…]-3′ (SEQ ID NO: 1) and Antisense 5′-[…]-3′ (SEQ ID NO:2)) from genomic DNA isolated from S. aureus (ATCC 29213) cultures. The PCR product was then cloned into the AVA0421 plasmid and sequence verified. The expression of recombinant protein was performed as previously described. The N-terminal 6-His fusion proteins were purified by nickel affinity chromatography followed by size exclusion gel chromatography (Superdex 75 26/60; GE Biosciences, Piscataway, N.J.).
Enzyme assays. Inhibition of SaMetRS was measured using the ATP depletion assay as previously described with some modifications. Compounds were pre-incubated for 15 minutes at room temperature in a 96-well plate with 400 μg/mL bulk E. coli tRNA, 25 nM SaMetRS, 0.1 U/mL pyrophosphatase, 0.2 mM spermine, 0.1 mg/mL bovine serum albumin, 2.5 mM dithiothreitol, 25 mM HEPES-KOH pH 7.9, 10 mM MgCl2, 50 mM KCl, and 2% DMSO. Reagents were purchased from Sigma-Aldrich or Roche. The reaction was started with the addition of 150 nM ATP and 20 μM L-methionine and after 120 minute incubation was stopped by the addition of an equal volume (50 μL) of Kinase-Glo® (Promega). Percent inhibition=100×(test compound−AVG low control)/(AVG high control−AVG low control) where the low control is all reagents except the compound and the high control is all reagents except the compounds and L-methionine. IC50 values were calculated by non-linear regression, sigmoidal-dose response, in Prism 3.0.

C. parvum = C. parvum growth inhibition; format: cell-based, Cryptosporidium parvum; conditions: read-out: (J) C. parvum EC50
[5] = test system: G. lamblia (ATCC GL50803); assay: G. lamblia growth inhibition; format: cell-based; conditions: Giardia duodenalis, read-out: (K) G. lamblia (ATCC GL50803) EC50

Compound	MIC [1] [µg/mL]	IC50 (MetRS (C. parvum)) [nM]	IC50 (MetRS (T. brucei)) [nM]	EC50 (T. cruzi) [nM]	MIC [2] [µg/mL]	MIC [3] [µg/mL]	EC50 (T. brucei; Trypanosoma brucei) [nM]	MIC (S. pyogenes (ATCC 19615)) [µg/mL]	IC50 [4] [nM]	EC50 (C. parvum; Cryptosporidium parvum) [nM]	EC50 [5] [nM]	EC50 (C. parvum) [nM]	(F) S. aureus (ATCC 29213) MIC [3] [µg/mL]	EC50 (T. brucei) [nM]
C[S+]([O-])c1nc(Cc2ccc(Cl)cc2Cl)cn1Cc1nc2nc(Cl)ccc2[nH]1 (stereo not shown) [Compound 2110, 1-({5-chloro-1H-imidazo[4,5-b]pyridin-2-yl}methyl)-4-[(2,4-dichlorophenyl)methyl]-2-methanesulfinyl-1H-imidazole]	1.99 (≈ 4.38 µM)	98.6	< 40	178	2.36 (≈ 5.19 µM)	0.795 (≈ 1.75 µM)	19.4	> 4	< 25	1270				
C[S+]([O-])c1nc(Cc2ccc(Cl)cc2Cl)cn1Cc1nc2ccc(F)nc2[nH]1 (stereo not shown) [Compound 2120, 4-[(2,4-dichlorophenyl)methyl]-1-({5-fluoro-1H-imidazo[4,5-b]pyridin-2-yl}methyl)-2-methanesulfinyl-1H-imidazole]	0.336 (≈ 0.767 µM)	< 40	< 40	295		1.26 (≈ 2.87 µM)	13.6	> 4	< 25	1230				
COc1ccc(-c2ccc(NC(C)=O)c3nc(Cc4nc5nc(Cl)ccc5[nH]4)cn23)c(Cl)c1 [Compound 2169, N-[2-({5-chloro-1H-imidazo[4,5-b]pyridin-2-yl}methyl)-5-(2-chloro-4-methoxyphenyl)imidazo[1,2-a]pyridin-8-yl]acetamide]		< 40	< 40			0.259 (≈ 0.538 µM)				144	10	195		
COc1ccc(Cc2cn(Cc3nc4nc(Cl)ccc4[nH]3)c(=O)n2CC(C)(C)O)c(Cl)c1 [Compound 2207, 1-({5-chloro-1H-imidazo[4,5-b]pyridin-2-yl}methyl)-4-[(2-chloro-4-methoxyphenyl)methyl]-3-(2-hydroxy-2-methylpropyl)-2,3-dihydro-1H-imidazol-2-one]		< 40	< 40		0.334 (≈ 0.701 µM)	0.218 (≈ 0.458 µM)				129	30		0.424	
COc1cc(Cl)c(-c2cccc3c2CN(Cc2nc4nc(Cl)ccc4[nH]2)C3=O)cc1OC [Compound 2231, 2-((5-chloro-1H-imidazo[4,5-b]pyridin-2-yl)methyl)-4-(2-chloro-4,5-dimethoxyphenyl)isoindolin-1-one]		< 40			< 0.00781		< 0.91				10			0.66
